Data taken from patent publication US12376590B2, “Compositions comprising pyridine carboxylate herbicides and azole carboxylate safeners” (Corteva Agriscience LLC, priority 2018, dated 2025).
Several values for one entry are separate records, joined by “and”; a condition that tells them apart may be missing. Equal values may be shown once.

How the values were obtained:
Test in all cases: Greenhouse postemergence herbicidal safening trial, visual injury after 20-22 d
[1] = tested on: winter rape (BRSNW); type: in vivo, Brassica napus
Text: (§1) Greenhouse Trial Methodology—Evaluation of Postemergence Herbicidal Safening in Crops
(§2) Seeds of the desired test plant species were planted in a 90:10% v/v (volume/volume) mixture of PRO-MIX® BX (Premier Tech Horticulture, Quakertown, PA, USA) and PROFILE® GREENS GRADE™ (Profile Products LLC, Buffalo Grove, IL, USA) planting mixture, which typically has a pH of 5.2 to 6.2 and an organic matter content of at least 50 percent, in plastic pots with a surface area of 103.2 square centimeters (cm^2). When required to ensure good germination and healthy plants, a fungicide treatment and/or other chemical or physical treatment was applied. The plants were grown for 7-36 days (d) in a greenhouse with an approximate 14-hour (h) photo-period which was maintained at about 23° C. during the day and 22° C. during the night. Nutrients and water were added on a regular basis and supplemental lighting was provided with overhead metal halide 1000-Watt lamps as necessary. The plants were employed for testing when they reached the second or third true leaf stage.
(§3) Emulsifiable concentrates of each of each pyridine carboxylate herbicide (Compound A or Compound B) were prepared at 100 grams acid equivalent per liter (g ae/L). An aliquot of each emulsifiable concentrate was placed in a 25 mL glass vial and diluted with an aqueous mixture of 1.25% (v/v) ACTIROB® B esterified rapeseed oil (Bayer Crop Science, Research Triangle Park, NC, USA) or MSO® Concentrate with LECI-TECH® methylated soybean oil (Loveland Products, Loveland, CO, USA) to obtain concentrated stock solutions at the highest application rate for each herbicide, based upon a 12 milliliter (mL) application volume at a rate of 187 liters per hectare (L/ha). The concentrated stock solutions were further diluted with an aqueous mixture of 1.25% v/v ACTIROB® B or MSO® Concentrate with LECI-TECH® to obtain stock solutions at reduced application rates for each herbicide. Spray solutions of the herbicide combinations (Compound A or Compound B plus safener) were prepared by adding weighed amounts or aliquots of the azole carboxylate safener to the stock solutions of Compound A or Compound B to form 12-mL spray solutions in two-way combinations.
(§4) The spray solutions were applied to the plant material with an overhead Mandel track sprayer equipped with 8002E nozzles calibrated to deliver 187 L/ha over an application area of 0.503 square meters (m^2) at a spray height of 18 inches (43 centimeters (cm)) above the average plant canopy. Control plants were sprayed in the same manner with the solvent blank. All herbicide (component a) application rates are given as “g ae/ha” and all safener (component b) application rates are given as “g ai/ha.”
(§5) The treated plants and control plants were placed in a greenhouse as described above and watered by sub-irrigation to prevent wash-off of the test compounds. After 20-22 d, the condition of the test plants as compared with that of the control plants was determined visually and scored on a scale of 0 to 100 percent where 0 corresponds to no injury and 100 corresponds to complete kill.

[2] = tested on: Russian thistle (SASKR); type: in vivo, Salsola kali; settings: applied alone
Text: as §1, §2, §3, §4, §5

[3] = tested on: spring wheat (TRZAS); type: in vivo, Triticum aestivum; settings: applied alone
Text: as §1, §2, §3, §4, §5

[4] = tested on: spring barley (HORVS); type: in vivo, Hordeum vulgare; settings: applied alone
Text: as §1, §2, §3, §4, §5

[5] = tested on: wild chamomile (MATCH); type: in vivo, Matricaria chamomilla; settings: applied alone
Text: as §1, §2, §3, §4, §5

[6] = tested on: wild pansy (VIOTR); type: in vivo, Viola tricolor
Text: as §1, §2, §3, §4, §5

[7] = tested on: Johnson grass (SORHA); type: in vivo, Sorghum halepense
Text: as §1, §2, §3, §4, §5

[8] = tested on: common lambsquarters (CHEAL); type: in vivo, Chenopodium album L.
Text: as §1, §2, §3, §4, §5

[9] = tested on: Canada thistle (CIRAR); type: in vivo, Cirsium arvense
Text: as §1, §2, §3, §4, §5

[10] = tested on: winter wheat (TRZAW); type: in vivo, Triticum aestivum
Text: as §1, §2, §3, §4, §5

[11] = tested on: herbicide-resistant kochia (KCHSC-R); type: in vivo, Kochia scoparia
Text: as §1, §2, §3, §4, §5

[12] = tested on: kochia (KCHSC); type: in vivo, Kochia scoparia
Text: as §1, §2, §3, §4, §5

[13] = tested on: nutsedge (CYPES); type: in vivo, Cyperus esculentus
Text: as §1, §2, §3, §4, §5

[14] = tested on: blackgrass (ALOMY); type: in vivo, Alopecurus myosuroides
Text: as §1, §2, §3, §4, §5

[15] = tested on: wild oat (AVEFA); type: in vivo, Avena fatua
Text: as §1, §2, §3, §4, §5

[16] = tested on: common rice (ORYSA); type: in vivo, Oryza sativa
Text: as §1, §2, §3, §4, §5

[17] = tested on: wild buckwheat (POLCO); type: in vivo, Polygonum convolvulus
Text: as §1, §2, §3, §4, §5

[18] = tested on: large crabgrass (DIGSA); type: in vivo, Digitaria sanguinalis
Text: as §1, §2, §3, §4, §5

[19] = tested on: Canada horseweed (ERICA); type: in vivo, Erigeron canadensis
Text: as §1, §2, §3, §4, §5

[20] = tested on: common sunflower (HELAN); type: in vivo, Helianthus annuus
Text: as §1, §2, §3, §4, §5

[21] = tested on: velvetleaf (ABUTH); type: in vivo, Abutilon theophrasti
Text: as §1, §2, §3, §4, §5

[22] = tested on: pigweed (AMARE); type: in vivo, Amaranthus retroflexus
Text: as §1, §2, §3, §4, §5

[23] = tested on: Chinese sprangletop (LEFCH); type: in vivo, Leptochloa chinensis
Text: as §1, §2, §3, §4, §5

[24] = tested on: giant foxtail (SETFA); type: in vivo, Setaria faberi
Text: as §1, §2, §3, §4, §5

[25] = tested on: maize (ZEAMX); type: in vivo, Zea mays
Text: as §1, §2, §3, §4, §5

[26] = tested on: barnyardgrass (ECHCG); type: in vivo, Echinochloa crus-galli
Text: as §1, §2, §3, §4, §5

[27] = tested on: soybean (GLXMA); type: in vivo, Glycine max
Text: as §1, §2, §3, §4, §5

[28] = tested on: Italian ryegrass (LOLMU); type: in vivo, Lolium multiflorum
Text: as §1, §2, §3, §4, §5

[29] = tested on: ivyleaf morningglory (IPOHE); type: in vivo, Ipomoea hederacea
Text: as §1, §2, §3, §4, §5

Measured: % visual injury Ob

CCOC(=O)c1nc(C(Cl)(Cl)Cl)n(-c2ccc(Cl)cc2Cl)n1 [Fenchlorazole-ethyl, fenchlorazole-ethyl]
0%: [1]; applied alone, 10 g/ha | [1]; applied alone, 20 g/ha | [1]; applied alone, 40 g/ha | [2]; 10 g/ha | [2]; 20 g/ha | [2]; 40 g/ha | [3]; 10 g/ha | [3]; 20 g/ha | [3]; 40 g/ha | [4]; 10 g/ha | [4]; 20 g/ha | [4]; 40 g/ha | [5]; 10 g/ha | [5]; 20 g/ha | [5]; 40 g/ha

O=C(O)c1nc(C(Cl)(Cl)Cl)n(-c2ccc(Cl)cc2Cl)n1 [Fenchlorazole, fenchlorazole]
0%: [1]; applied alone, 20 g/ha | [1]; applied alone, 40 g/ha | [1]; applied alone, 80 g/ha | [6]; applied alone, 20 g/ha | [6]; applied alone, 40 g/ha | [6]; applied alone, 80 g/ha | [7]; applied alone, 20 g/ha | [7]; applied alone, 40 g/ha | [7]; applied alone, 80 g/ha | [8]; applied alone, 20 g/ha | [8]; applied alone, 40 g/ha | [8]; applied alone, 80 g/ha | [9]; applied alone, 20 g/ha | [9]; applied alone, 40 g/ha | [9]; applied alone, 80 g/ha | [10]; applied alone, 20 g/ha | [10]; applied alone, 40 g/ha | [10]; applied alone, 80 g/ha | [11]; applied alone, 20 g/ha | [11]; applied alone, 40 g/ha | [11]; applied alone, 80 g/ha | [12]; applied alone, 20 g/ha | [12]; applied alone, 40 g/ha | [12]; applied alone, 80 g/ha | [13]; applied alone, 20 g/ha | [13]; applied alone, 40 g/ha | [13]; applied alone, 80 g/ha | [14]; applied alone, 20 g/ha | [14]; applied alone, 40 g/ha | [14]; applied alone, 80 g/ha | [15]; applied alone, 20 g/ha | [15]; applied alone, 40 g/ha | [15]; applied alone, 80 g/ha | [16]; applied alone, 20 g/ha | [16]; applied alone, 40 g/ha | [16]; applied alone, 80 g/ha | [17]; applied alone, 20 g/ha | [17]; applied alone, 40 g/ha | [17]; applied alone, 80 g/ha | [18]; applied alone, 20 g/ha | [18]; applied alone, 40 g/ha | [18]; applied alone, 80 g/ha | [19]; applied alone, 20 g/ha | [19]; applied alone, 40 g/ha | [19]; applied alone, 80 g/ha | [20]; applied alone, 20 g/ha | [20]; applied alone, 40 g/ha | [20]; applied alone, 80 g/ha | [21]; applied alone, 20 g/ha | [21]; applied alone, 40 g/ha | [21]; applied alone, 80 g/ha | [22]; applied alone, 20 g/ha | [22]; applied alone, 40 g/ha | [22]; applied alone, 80 g/ha | [23]; applied alone, 20 g/ha | [23]; applied alone, 40 g/ha | [23]; applied alone, 80 g/ha | [24]; applied alone, 20 g/ha | [24]; applied alone, 40 g/ha | [24]; applied alone, 80 g/ha | [25]; applied alone, 20 g/ha | [25]; applied alone, 40 g/ha | [25]; applied alone, 80 g/ha | [26]; applied alone, 20 g/ha | [26]; applied alone, 40 g/ha | [26]; applied alone, 80 g/ha | [27]; applied alone, 20 g/ha | [27]; applied alone, 40 g/ha | [27]; applied alone, 80 g/ha | [28]; applied alone, 20 g/ha | [28]; applied alone, 40 g/ha | [28]; applied alone, 80 g/ha | [29]; applied alone, 20 g/ha | [29]; applied alone, 40 g/ha | [29]; applied alone, 80 g/ha

N#CCOC(=O)c1nc(-c2ccc3cc[nH]c3c2F)c(F)c(N)c1Cl [Compound A, cyanomethyl 4-amino-3-chloro-5-fluoro-6-(7-fluoro-1H-indol-6-yl)pyridine-2-carboxylate]
5%: [28]; Compound A 20 g/ha | [28]; applied alone, 20 g/ha
30%: [6]; Compound A 20 g/ha | [6]; applied alone, 20 g/ha | [13]; Compound A 20 g/ha | [13]; applied alone, 20 g/ha | [18]; Compound A 20 g/ha | [18]; applied alone, 20 g/ha
13%: [25]; Compound A 20 g/ha | [25]; applied alone, 20 g/ha
88%: [8]; Compound A 20 g/ha | [8]; applied alone, 20 g/ha
55%: [25]; applied alone, 40 g/ha
97%: [12]; Compound A 20 g/ha | [12]; applied alone, 20 g/ha
65%: [24]; Compound A 20 g/ha | [24]; applied alone, 20 g/ha
0%: [7]; Compound A 20 g/ha | [7]; applied alone, 20 g/ha | [4]; 20 g/ha | [14]; Compound A 20 g/ha | [14]; applied alone, 20 g/ha | [15]; Compound A 20 g/ha | [15]; applied alone, 20 g/ha | [29]; Compound A 20 g/ha | [29]; applied alone, 20 g/ha
93%: [22]; Compound A 20 g/ha | [22]; applied alone, 20 g/ha
17%: [4]; 40 g/ha
50%: [5]; 20 g/ha
85%: [1]; Compound A 20 g/ha | [26]; Compound A 20 g/ha | [26]; applied alone, 20 g/ha
60%: [2]; 20 g/ha | [23]; Compound A 20 g/ha | [23]; applied alone, 20 g/ha
73%: [13]; applied alone, 40 g/ha
95% and 85%: [1]; applied alone, 20 g/ha
100%: [17]; Compound A 20 g/ha | [17]; applied alone, 20 g/ha | [20]; applied alone, 40 g/ha | [22]; applied alone, 40 g/ha | [27]; Compound A 20 g/ha | [27]; applied alone, 20 g/ha
95%: [9]; Compound A 20 g/ha | [9]; applied alone, 20 g/ha | [19]; Compound A 20 g/ha | [19]; applied alone, 20 g/ha | [20]; Compound A 20 g/ha | [20]; applied alone, 20 g/ha | [21]; Compound A 20 g/ha | [21]; applied alone, 20 g/ha
23% and 30%: [3]; 40 g/ha
10%: [16]; Compound A 20 g/ha | [16]; applied alone, 20 g/ha
90%: [11]; Compound A 20 g/ha | [11]; applied alone, 20 g/ha
25%: [3]; 20 g/ha | [10]; Compound A 20 g/ha | [10]; applied alone, 20 g/ha | [10]; applied alone, 40 g/ha
